Measurements reported in PubChem BioAssay (NCI).
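Values below derive from 48-hour exposures of cells grown in 96-well plates, with endpoints linearly interpolated between the two concentrations bracketing the appropriate inhibition level. Definition used: TGI = concentration required for complete inhibition of growth.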

Columns and labels:
Assay in all cases: inhibition of tumour cell growth, NCI panel, 48 h
[1] = test system: EKVX NSCLC
[2] = test system: HCT-116 colon
[3] = test system: SK-OV-3 ovarian
[4] = test system: SK-MEL-2 melanoma
[5] = test system: DMS 273 small cell lung
[6] = test system: SF-268 CNS
[7] = test system: UACC-62 melanoma
[8] = test system: XF 498 CNS
[9] = test system: RPMI-8226 leukemia
[10] = test system: NCI-H522 lung
[11] = test system: SR leukemia
[12] = test system: SN12C renal
[13] = test system: U251 CNS
[14] = test system: SF-539 CNS
[15] = test system: UACC-257 melanoma
[16] = test system: HOP-62 NSCLC
[17] = test system: COLO 205 colon
[18] = test system: HOP-92 NSCLC
[19] = test system: MALME-3M melanoma
[20] = test system: K-562 leukemia
[21] = test system: ACHN renal
[22] = test system: SF-295 CNS
[23] = test system: NCI-H460 lung
[24] = test system: SW-620 colon
[25] = test system: LOX IMVI melanoma
[26] = test system: IGROV1 ovarian
[27] = test system: SK-MEL-5 melanoma
[28] = test system: HCC-2998 colon
[29] = test system: TK-10 renal
[30] = test system: HT29 colon
[31] = test system: HOP-18 NSCLC
[32] = test system: A549 NSCLC
[33] = test system: SNB-19 CNS
[34] = test system: CCRF-CEM leukemia
[35] = test system: DMS 114 small cell lung
[36] = test system: SNB-75 CNS
[37] = test system: SK-MEL-28 melanoma
[38] = test system: DLD-1 colon
[39] = test system: NCI-H226 lung
[40] = test system: A498 renal
[41] = test system: OVCAR-4 ovarian
[42] = test system: 786-0 renal
[43] = test system: KM12 colon
[44] = test system: OVCAR-5 ovarian
[45] = test system: HL-60(TB) leukemia
[46] = test system: SNB-78 CNS
[47] = test system: OVCAR-8 ovarian
[48] = test system: M19-MEL melanoma
[49] = test system: UO-31 renal
[50] = test system: OVCAR-3 ovarian
[51] = test system: RXF 393 renal
[52] = test system: NCI-H23 lung
[53] = test system: M14 melanoma
[54] = test system: HCT-15 colon
[55] = test system: KM20L2 colon
[56] = test system: MOLT-4 leukemia
[57] = test system: CAKI-1 renal
[58] = test system: LXFL 529 NSCLC
[59] = test system: RXF-631 renal
[60] = test system: T-47D breast
[61] = test system: MDA-N
[62] = test system: DU-145 prostate
[63] = test system: MDA-MB-435
[64] = test system: HS 578T breast
[65] = test system: MCF7 breast
[66] = test system: PC-3 prostate
[67] = test system: BT-549 breast
[68] = test system: MDA-MB-231 breast

For `NC1=Nc2ccccc2Sc2ccccc21`, the TGI [1] was over 100 µM, the TGI [2] was over 100 µM and the TGI [3] was over 100 µM. It also gave a TGI [4] of over 100 µM, a TGI [5] of over 100 µM and a TGI [6] of over 100 µM. It also gave a TGI [7] of over 100 µM, a TGI [8] of over 100 µM and a TGI [9] of over 100 µM. It also gave a TGI [10] of over 100 µM, a TGI [11] of over 100 µM and a TGI [12] of over 100 µM. For the same compound, the TGI [13] was over 100 µM, the TGI [14] was over 100 µM and the TGI [15] was over 100 µM. The TGI [16] was over 100 µM, the TGI [17] was over 100 µM and the TGI [18] was over 100 µM. For the same compound, the TGI [19] was over 100 µM, the TGI [20] was over 100 µM and the TGI [21] was over 100 µM. The TGI [22] was over 100 µM, the TGI [23] was over 100 µM and the TGI [24] was over 100 µM. For the same compound, the TGI [25] was over 100 µM, the TGI [26] was over 100 µM and the TGI [27] was over 100 µM. The TGI [28] was over 100 µM, the TGI [29] was over 100 µM and the TGI [30] was over 100 µM. For the same compound, the TGI [31] was over 100 µM, the TGI [32] was over 100 µM and the TGI [33] was over 100 µM. For the same compound, the TGI [34] was over 100 µM, the TGI [35] was over 100 µM and the TGI [36] was 53.2 µM. It also gave a TGI [37] of over 100 µM, a TGI [38] of over 100 µM and a TGI [39] of over 100 µM. For the same compound, the TGI [40] was over 100 µM, the TGI [41] was over 100 µM and the TGI [42] was over 100 µM. It also gave a TGI [43] of over 100 µM, a TGI [44] of over 100 µM and a TGI [45] of over 100 µM. It also gave a TGI [46] of over 100 µM, a TGI [47] of over 100 µM and a TGI [48] of over 100 µM. For the same compound, the TGI [49] was over 100 µM, the TGI [50] was over 100 µM and the TGI [51] was over 100 µM. For the same compound, the TGI [52] was over 100 µM, the TGI [53] was over 100 µM and the TGI [54] was over 100 µM. The TGI [55] was over 100 µM, the TGI [56] was over 100 µM and the TGI [57] was over 100 µM.

Work on `COC(=O)C(=O)C(C#N)c1c(Cl)cccc1Cl` (stereo unspecified) yielded a TGI [1] of over 100 µM, a TGI [2] of over 100 µM and a TGI [3] of over 100 µM. It also gave a TGI [4] of over 100 µM, a TGI [5] of over 100 µM and a TGI [6] of over 100 µM. It also gave a TGI [7] of over 100 µM, a TGI [8] of over 100 µM and a TGI [58] of over 100 µM. It also gave a TGI [9] of over 100 µM, a TGI [10] of over 100 µM and a TGI [12] of over 100 µM. For the same compound, the TGI [14] was over 100 µM, the TGI [15] was over 100 µM and the TGI [16] was over 100 µM. The TGI [17] was over 100 µM, the TGI [18] was over 100 µM and the TGI [19] was over 100 µM. For the same compound, the TGI [20] was over 100 µM, the TGI [21] was over 100 µM and the TGI [22] was over 100 µM. The TGI [23] was over 100 µM, the TGI [24] was over 100 µM and the TGI [25] was over 100 µM. For the same compound, the TGI [26] was over 100 µM, the TGI [27] was over 100 µM and the TGI [29] was over 100 µM. For the same compound, the TGI [30] was over 100 µM, the TGI [32] was over 100 µM and the TGI [33] was over 100 µM. For the same compound, the TGI [35] was over 100 µM, the TGI [36] was over 100 µM and the TGI [37] was over 100 µM. It also gave a TGI [38] of over 100 µM, a TGI [39] of over 100 µM and a TGI [40] of over 100 µM. For the same compound, the TGI [41] was over 100 µM, the TGI [42] was over 100 µM and the TGI [44] was over 100 µM. The TGI [45] was over 100 µM, the TGI [46] was over 100 µM and the TGI [47] was over 100 µM. The TGI [48] was over 100 µM, the TGI [49] was over 100 µM and the TGI [50] was over 100 µM. For the same compound, the TGI [51] was over 100 µM, the TGI [52] was over 100 µM and the TGI [53] was over 100 µM. For the same compound, the TGI [54] was over 100 µM, the TGI [55] was over 100 µM and the TGI [56] was over 100 µM. It also gave a TGI [59] of over 100 µM and a TGI [57] of over 100 µM.

For `C[C@H]1CCC2C(OC(=O)[C@@H]2CN(C)C)[C@]2(C)C(=O)C=CC12O` (stereo partly specified), the TGI [60] was 13.2 µM, the TGI [2] was 12.5 µM and the TGI [3] was 38.6 µM. It also gave a TGI [4] of over 54.4 µM, a TGI [5] of 18.8 µM and a TGI [61] of 13.3 µM. The TGI [6] was 28.6 µM, the TGI [62] was 23.2 µM and the TGI [7] was 9.32 µM. The TGI [58] was 12.4 µM, the TGI [9] was 16.2 µM and the TGI [63] was 22.4 µM. The TGI [10] was 3.13 µM, the TGI [11] was 11.2 µM and the TGI [12] was 14.6 µM. It also gave a TGI [13] of 38.8 µM, a TGI [14] of 12 µM and a TGI [64] of over 100 µM. It also gave a TGI [15] of 23.6 µM, a TGI [16] of 45.6 µM and a TGI [17] of 17.9 µM. For the same compound, the TGI [18] was 8.03 µM, the TGI [19] was 16.7 µM and the TGI [20] was over 55 µM. It also gave a TGI [21] of 5.74 µM, a TGI [22] of 31.1 µM and a TGI [23] of 28.7 µM. The TGI [24] was 10.2 µM, the TGI [25] was 17.8 µM and the TGI [26] was 42.5 µM. It also gave a TGI [27] of 20.3 µM, a TGI [28] of 18.2 µM and a TGI [29] of 18.4 µM. For the same compound, the TGI [65] was 24.5 µM, the TGI [30] was 16 µM and the TGI [31] was 38.9 µM. For the same compound, the TGI [32] was 72.8 µM, the TGI [33] was over 57.5 µM and the TGI [34] was 9.22 µM. The TGI [35] was 11.6 µM, the TGI [36] was 27.1 µM and the TGI [37] was 8.35 µM. For the same compound, the TGI [38] was 11 µM, the TGI [39] was over 38.1 µM and the TGI [40] was 31.2 µM. It also gave a TGI [41] of 33.4 µM, a TGI [42] of 11.2 µM and a TGI [43] of 15.1 µM. The TGI [44] was 34.1 µM, the TGI [45] was 7.18 µM and the TGI [66] was 44.9 µM. The TGI [48] was 20.3 µM, the TGI [49] was 30.8 µM and the TGI [50] was 15 µM. It also gave a TGI [51] of 4.72 µM, a TGI [52] of 13.6 µM and a TGI [53] of 14.8 µM. It also gave a TGI [55] of 17.7 µM, a TGI [56] of 20.2 µM and a TGI [59] of 3.11 µM. It also gave a TGI [57] of 24.2 µM, a TGI [67] of 25.2 µM and a TGI [68] of 25.4 µM.

`CCOC(=O)C(=O)Nc1nc2ccc(C)cc2s1` was tested, and the TGI [1] was over 100 µM, the TGI [2] was over 100 µM and the TGI [3] was over 100 µM. For the same compound, the TGI [4] was over 100 µM, the TGI [5] was over 100 µM and the TGI [6] was over 100 µM. For the same compound, the TGI [7] was over 100 µM, the TGI [8] was over 100 µM and the TGI [58] was over 100 µM. For the same compound, the TGI [9] was over 100 µM, the TGI [10] was over 100 µM and the TGI [11] was over 100 µM. The TGI [12] was over 100 µM, the TGI [13] was over 100 µM and the TGI [14] was over 100 µM. It also gave a TGI [15] of over 100 µM, a TGI [16] of over 100 µM and a TGI [17] of over 100 µM. For the same compound, the TGI [18] was over 100 µM, the TGI [19] was over 100 µM and the TGI [20] was over 100 µM. The TGI [21] was over 100 µM, the TGI [23] was over 100 µM and the TGI [24] was over 100 µM. For the same compound, the TGI [26] was over 100 µM, the TGI [27] was over 100 µM and the TGI [28] was over 100 µM. The TGI [30] was over 100 µM, the TGI [32] was over 100 µM and the TGI [33] was over 100 µM. The TGI [34] was over 100 µM, the TGI [35] was over 100 µM and the TGI [36] was over 100 µM. The TGI [37] was over 100 µM, the TGI [38] was over 100 µM and the TGI [39] was over 100 µM. The TGI [40] was over 100 µM, the TGI [41] was over 100 µM and the TGI [42] was over 100 µM. The TGI [43] was over 100 µM, the TGI [44] was over 100 µM and the TGI [46] was over 100 µM. For the same compound, the TGI [47] was over 100 µM, the TGI [48] was over 100 µM and the TGI [49] was over 100 µM. It also gave a TGI [50] of over 100 µM, a TGI [52] of over 100 µM and a TGI [53] of over 100 µM. For the same compound, the TGI [54] was over 100 µM, the TGI [55] was over 100 µM and the TGI [56] was over 100 µM. It also gave a TGI [59] of over 100 µM and a TGI [57] of over 100 µM.
